Reference: US12351559B2 (Biohaven Therapeutics Ltd., priority 2014, dated 2025)

Biological target: T1, Kv7.2/7.3 (Homo sapiens, UniProt O43525+O43526)
T1 construct: host or cells: HEK cells, tetracycline-inducible expression
Test: Kv7.2/7.3 activation assay, QPatch planar patch-clamp, single concentration screen
Assay type: cell-based
Set-up: key: <1.2-fold increase over baseline (−); +/−: as a range from <1.2-fold increase over baseline (−) up to >6-fold increase over baseline (+++); as a range from <1.2-fold increase over baseline (−) up to >6-fold increase over baseline (+++); as a range from <1.2-fold increase over baseline (−) up to >6-fold increase over baseline (+++); >6-fold increase over baseline (+++)
Settings: Kv7.2/Kv7.3 co-expressing HEK cells

[1] = compound 3 μM, steady-state current at end of 2 s pulse to −30 mV

SMILES | Kv7.2/7.3 Activity: increase in current over baseline [1] | Kv7.2/7.3 Activity: increase in current over baseline (compound @ 1 μM)
CC(C)(O)c1ccc2nc(NC(=O)[C@@H]3CC3(C)C)n(C3CCC3)c2c1 [Example 89, (R)-N-(1-cyclobutyl-6-(2-hydroxypropan-2-yl)-1H-benzo[d]imidazol-2-yl)-2,2-dimethylcyclopropane-1-carboxamide] | ++ | –
CC(C)(C)C(=O)Nc1nc2ccc(C(C)(C)O)cc2n1C1CCC1 [Example 90, N-(1-cyclobutyl-6-(2-hydroxypropan-2-yl)-1H-benzo[d]imidazol-2-yl)pivalamide] | +/− | –
CC(C)(O)c1ccc2nc(NC(=O)CC(O)(C3CC3)C3CC3)n(C3CCC3)c2c1 [Example 97, N-(1-cyclobutyl-6-(2-hydroxypropan-2-yl)-1H-benzo[d]imidazol-2-yl)-3,3-dicyclopropyl-3-hydroxypropanamide] | +/− | –
O=C(CC(O)(C1CC1)C1CC1)Nc1nc2ccc(C(F)(F)F)cc2n1C1CCC1 [Example 98, N-(1-cyclobutyl-6-(trifluoromethyl)-1H-benzo[d]imidazol-2-yl)-3,3-dicyclopropyl-3-hydroxypropanamide] | + | –
CC(C)(O)c1ccc2nc(NC(=O)C3CC34CCC4)n(C3CCC3)c2c1 (stereo not drawn) [Example 101, N-(1-cyclobutyl-6-(2-hydroxypropan-2-yl)-1H-benzo[d]imidazol-2-yl)spiro[2.3]hexane-1-carboxamide] | + | –
CC(C)(O)c1ccc2nc(NC(=O)C3CCC(F)(F)C3)n(C3CCC3)c2c1 (stereo not drawn) [Example 102, N-(1-cyclobutyl-6-(2-hydroxypropan-2-yl)-1H-benzo[d]imidazol-2-yl)-3,3-difluorocyclopentane-1-carboxamide] | +/− | –
C[C@](O)(CC(=O)Nc1nc2ccc(Cl)cc2n1C1CCC1)c1ccc(F)cc1 [Example 103, (S)-N-(6-chloro-1-cyclobutyl-1H-benzo[d]imidazol-2-yl)-3-(4-fluorophenyl)-3-hydroxybutanamide] | + | –
CC(C)(C)CC(=O)Nc1nc2ccc(C(C)(C)O)cc2n1-c1ccc(F)cc1 [Example 104, N-(1-(4-fluorophenyl)-6-(2-hydroxypropan-2-yl)-1H-benzo[d]imidazol-2-yl)-3,3-dimethylbutanamide] | – | +(@ 1 μM)
CC(C)(O)c1ccc2nc(NC(=O)C3CC34CC4)n(C3CCC3)c2c1 (stereo not drawn) [Example 105, N-(1-cyclobutyl-6-(2-hydroxypropan-2-yl)-1H-benzo[d]imidazol-2-yl)spiro[2.2]pentane-1-carboxamide] | + | –
CCC(O)(CC)c1ccc2nc(NC(=O)C3CC34CC4)n(C3CCC3)c2c1 (stereo not drawn) [Example 106, N-(1-cyclobutyl-6-(3-hydroxypentan-3-yl)-1H-benzo[d]imidazol-2-yl)spiro[2.2]pentane-1-carboxamide] | +/− | –
CC(C)(O)c1ccc2nc(NC(=O)C3CC34CC4)n(-c3ccc(F)cc3)c2c1 (stereo not drawn) [Example 109, N-(1-(4-fluorophenyl)-6-(2-hydroxypropan-2-yl)-1H-benzo[d]imidazol-2-yl)spiro[2.2]pentane-1-carboxamide] | + | –
CCOC(=O)Cc1ccc2nc(NC(=O)CC(C)(C)C)n(C3CCC3)c2c1F [Example 110, ethyl 2-(1-cyclobutyl-2-(3,3-dimethylbutanamido)-7-fluoro-1H-benzo[d]imidazol-6-yl)acetate] | + | –
CCOC(=O)Cc1ccc2nc(NC(=O)[C@H]3CC3(C)C)n(C3CCC3)c2c1F [Example 111, ethyl (S)-2-(1-cyclobutyl-2-(2,2-dimethylcyclopropane-1-carboxamido)-7-fluoro-1H-benzo[d]imidazol-6-yl)acetate] | + | –
CCOC(=O)Cc1ccc2nc(NC(=O)CC(C)(C)C)n(-c3ccc(F)cc3)c2c1F [Example 112, ethyl 2-(2-(3,3-dimethylbutanamido)-7-fluoro-1-(4-fluorophenyl)-1H-benzo[d]imidazol-6-yl)acetate] | ++ | –
CC(C)(O)Cc1ccc2nc(NC(=O)[C@H]3CC3(C)C)n(C3CCC3)c2c1F [Example 113, (S)-N-(1-cyclobutyl-7-fluoro-6-(2-hydroxy-2-methylpropyl)-1H-benzo[d]imidazol-2-yl)-2,2-dimethylcyclopropane-1-carboxamide] | + | –
CC(C)(C)CC(=O)Nc1nc2ccc(CC(C)(C)O)c(F)c2n1C1CCC1 [Example 114, N-(1-cyclobutyl-7-fluoro-6-(2-hydroxy-2-methylpropyl)-1H-benzo[d]imidazol-2-yl)-3,3-dimethylbutanamide] | + | –
CC(C)(O)Cc1ccc2nc(NC(=O)[C@H]3CC3(C)C)n(-c3ccc(F)cc3)c2c1F [Example 115, (S)-N-(7-fluoro-1-(4-fluorophenyl)-6-(2-hydroxy-2-methylpropyl)-1H-benzo[d]imidazol-2-yl)-2,2-dimethylcyclopropane-1-carboxamide] | + | –
CC(C)(C)CC(=O)Nc1nc2ccc(CC(C)(C)O)c(F)c2n1-c1ccc(F)cc1 [Example 116, N-(7-fluoro-1-(4-fluorophenyl)-6-(2-hydroxy-2-methylpropyl)-1H-benzo[d]imidazol-2-yl)-3,3-dimethylbutanamide] | + | –
CC(C)(C)CC(=O)Nc1nc2ccc(CC(=O)O)c(F)c2n1C1CCC1 [Example 117, 2-(1-cyclobutyl-2-(3,3-dimethylbutanamido)-7-fluoro-1H-benzo[d]imidazol-6-yl)acetic acid] | +/− | –
CN(C)C(=O)Cc1ccc2nc(NC(=O)CC(C)(C)C)n(C3CCC3)c2c1F [Example 118, N-(1-cyclobutyl-6-(2-(dimethylamino)-2-oxoethyl)-7-fluoro-1H-benzo[d]imidazol-2-yl)-3,3-dimethylbutanamide] | + | –

Other lines, results leading:

Kv7.2/7.3 Activity: increase in current over baseline [1] | Kv7.2/7.3 Activity: increase in current over baseline (compound @ 1 μM) | SMILES
++ | – | CC1(n2c(NC(=O)C[C@](C)(O)c3ccccc3)nc3ccc(C#N)cc32)CCC1 [Example 95, (S)-N-(6-cyano-1-(1-methylcyclobutyl)-1H-benzo[d]imidazol-2-yl)-3-hydroxy-3-phenylbutanamide]
++ | – | CC1(n2c(NC(=O)C[C@@](C)(O)c3ccccc3)nc3ccc(C#N)cc32)CCC1 [Example 96, (R)-N-(6-cyano-1-(1-methylcyclobutyl)-1H-benzo[d]imidazol-2-yl)-3-hydroxy-3-phenylbutanamide]
+ | – | C[C@](O)(CC(=O)Nc1nc2ccc(Cl)cc2n1C1CCC1)c1ccccc1 [Example 99, (S)-N-(6-chloro-1-cyclobutyl-1H-benzo[d]imidazol-2-yl)-3-hydroxy-3-phenylbutanamide]
+ | – | C[C@@](O)(CC(=O)Nc1nc2ccc(Cl)cc2n1C1CCC1)c1ccccc1 [Example 100, (R)-N-(6-chloro-1-cyclobutyl-1H-benzo[d]imidazol-2-yl)-3-hydroxy-3-phenylbutanamide]
+ | – | C[C@](O)(CC(=O)Nc1nc2ccc(Cl)cc2n1-c1ccc(F)cc1)c1ccccc1 [Example 107, (S)-N-(6-chloro-1-(4-fluorophenyl)-1H-benzo[d]imidazol-2-yl)-3-hydroxy-3-phenylbutanamide]
+/− | – | C[C@@](O)(CC(=O)Nc1nc2ccc(Cl)cc2n1-c1ccc(F)cc1)c1ccccc1 [Example 108, (R)-N-(6-chloro-1-(4-fluorophenyl)-1H-benzo[d]imidazol-2-yl)-3-hydroxy-3-phenylbutanamide]
+/− | – | Cc1cc2nc(NC(=O)C[C@](C)(O)c3ccccc3)n(C(C)(C)C)c2cc1C#N [Example 119, (S)-N-(1-(tert-butyl)-6-cyano-5-methyl-1H-benzo[d]imidazol-2-yl)-3-hydroxy-3-phenylbutanamide]
+ | – | Cc1cc2nc(NC(=O)C[C@@](C)(O)c3ccccc3)n(C(C)(C)C)c2cc1C#N [Example 120, (R)-N-(1-(tert-butyl)-6-cyano-5-methyl-1H-benzo[d]imidazol-2-yl)-3-hydroxy-3-phenylbutanamide]
+ | – | Cc1cc2nc(NC(=O)C[C@](C)(O)c3ccc(F)cc3)n(C(C)(C)C)c2cc1C#N [Example 121, (S)-N-(1-(tert-butyl)-6-cyano-5-methyl-1H-benzo[d]imidazol-2-yl)-3-(4-fluorophenyl)-3-hydroxybutanamide]
++ | – | Cc1cc2nc(NC(=O)C[C@](C)(O)c3ccccc3F)n(C(C)(C)C)c2cc1C#N [Example 122, (S)-N-(1-(tert-butyl)-6-cyano-5-methyl-1H-benzo[d]imidazol-2-yl)-3-(2-fluorophenyl)-3-hydroxybutanamide]
+/− | – | Cc1cc2nc(NC(=O)C[C@](C)(O)c3ccccc3)n(C3CCC3)c2cc1C#N [Example 123, (S)-N-(6-cyano-1-cyclobutyl-5-methyl-1H-benzo[d]imidazol-2-yl)-3-hydroxy-3-phenylbutanamide]
+/− | – | Cc1cc2nc(NC(=O)C[C@@](C)(O)c3ccccc3)n(C3CCC3)c2cc1C#N [Example 124, (R)-N-(6-cyano-1-cyclobutyl-5-methyl-1H-benzo[d]imidazol-2-yl)-3-hydroxy-3-phenylbutanamide]
+/− | – | Cc1cc2nc(NC(=O)C[C@](C)(O)c3ccc(F)cc3)n(C3CCC3)c2cc1C#N [Example 125, (S)-N-(6-cyano-1-cyclobutyl-5-methyl-1H-benzo[d]imidazol-2-yl)-3-(4-fluorophenyl)-3-hydroxybutanamide]
